# Patent publication US20240139149A1, “THERAPEUTIC USES OF UROLITHIN DERIVATIVES” (Vandria SA, priority 2022, published 2024)
# Entries after “also recorded” stand apart in the source; their conditions may differ.
# System: splenic murine T cells
# Assay: Murine T cells stimulated with αCD3/αCD28 in presence of UA
# Assay type: cell-based
# Method: Splenic murine T cells were isolated from mice aged 6-20 weeks by negative selection with EasySep mouse T cell isolation kit (Stem cell) according to the manufacturer's instructions. To monitor T cell proliferation, purified T cells were loaded with CellTrace Violet (C34557 ThermoFisher Scientific). T cell activation was initiated using αCD3/CD28 activation beads (11456D; ThermoFisher Scientific) at a ratio of 25 μl dynabeads per 0.5×106 T-cells. Cells were activated with 25-50 μM Urolithin A (Tocris) or DMSO in T cell activation Medium (RPMI (ThermoFisher Scientific) 10% FBS (South America origin), 10 mM Hepes (Sigma), 1×Non-Essential Amino Acid, 1 mM Sodium Pyruvate, 50 µM β-Mercaptoethanol, 100 U/mL penicillin, 100 μg/mL streptomycin and 2 mM Glutamax (ThermoFisher Scientific) for the indicated durations. In selected experiments, cells were stimulated in the presence of inhibitors, namely TCFli (ICG-001; SelleckChem; […]) and PGC-lai (SR-18292, Sigma-Aldrich; […]). For subsequent analysis, activating beads were magnetically removed prior antibody staining. For human T cells, peripheral blood mononuclear cells were purified with a Ficoll-Paque (GE healthcare) gradient. T cells were enriched with EasySep Human T Cell Isolation Kit (StemCell) and activated with dynabead Human T-Activator CD3/CD28 for T Cell Expansion and Activation Kit (11131D; ThermoFisher Scientific), similar to murine T cell stimulation. When the subsequent activation and expansion of CAR T cells was studied, plates were coated with 1 μg/mL anti-human CD3 (αCD3; clone OKT3) and thawed PBMC were cultivated with […] anti-human CD28 (αCD28; 15E8, both Miltenyi Biotec) containing media for three days. (NutriT media (4Cell® Nutri-T media (Sartorius) containing 0.5% penicillin/streptomycin) supplemented with IL-7 (25 U/mL) and IL-15 […] (all Miltenyi Biotec)).
# Tumors were minced and digested with Tumor & Tissue Dissociation Reagent (BD Horizon) for 30 min. The remaining organ pieces were filtered through a 70 µm cell strainer. Cells were then washed with PBS 1% BSA and 2 mM EDTA. Immune cells were enriched on a 30%/40%/75% Percoll gradient after a 1700 rpm 17 min centrifugation. Then, tumor immune filtrates or activated T cells were stained with Fixable Viability Dye-eF780 (65-0865-14; eBioscience), αCD45-FITC (30-F11; 11-0451-85; eBioscience), αCD11b-BV650 (M1/70; 56340; BD) α-CD11c-BV785 (HL3; 563735; BD), aLy6G-BV605 (53-6.7; 563005; BD), aLy6C-AF700 (HK1.4; 128024; Biolegend), aF4/80-PE (BM8; 12-4801-82, eBioscience), aPD-L1-PECy7 (MIH5; 25-5982-80, eBioscience); or with Fixable Viability Dye-eF780 (ebioscience), αCD45-BV786 (30-F11; 564225; BD), αCD4-BUV496 (GK1.5; 564667; BD), αCD8-BV605 (100744; Biolegend), aPD1-APC (J43; 17-9985-82; eBioscience), aTIM-3-PECy7 (RMT3-23; 119715; Biolegend), aCTLA4-PE (UC10-4B9; 106305; Biolegend) and aLag3-BV421 (C9B7W; 125221, Biolegend); or with Fixable Viability Dye-eF780 (eBioscience), αCD4-FITC (H129.19; 553650; BD), αCD8-APC (53-6.7; 17-0081-83; eBioscience), αCD44-AF400 (IM7; 103026; Biolegend), αCD62L-BV785 (MEL-14; 104440; Biolegend), αSca-1-PerCP-Cy5.5 (D7; 45-5981-82; eBioscience), αCD95-PE (Jo2; 554258; BD); or with Fixable Viability Dye-eF780 (eBioscience), αCD8-BV650 (53-6.7; 563234; BD), αCD4-BUV496 (GK1.5; 564667; BD), αCD127-APC (A7R34; 17-1271-82; eBioscience), αCD95-FITC (SA367H8;152605; Biolegend), αCD44-AF400 (IM7; 103026; Biolegend), αCD62L-BV785 (MEL-14; 104440; Biolegend), αSca-1-PerCP-Cy5.5 (D7; 45-5981-82; eBioscience) followed by intracellular staining of aTCF1-PE (S33-966; 564217; BD), or PGC-1α (sc-518025; D-5; santa cruz), or aCyclinD1 (MA5-28534, DCS-6; Invitrogen) with transcription factor buffer set kit (BD Biosciences). To study cytokine expression, tumor immune infiltrates were stimulated ex vivo with 20 ng/mL PMA and […] Ionomycin (Sigma) for 3 h in T cell activation medium with Brefeldin A (Biolegend). […]
smiles,measurement,setting,value
"O=c1oc2cc(O)ccc2c2ccc(O)cc12 [UA, Urolithin A]",lysosome formation in CD8+ T cells,"6 h, UA 50 μM",enhanced
same,phosphorylation of Stat1,"6 h, UA 50 μM vs vehicle",equal phosphorylation
same,Parkin protein expression,"24 h, UA 50 μM",stabilized
same,PGC-1α in Pink1−/− or Pgam5−/− CD8+ T cells,"48 h, UA 50 μM",failed to enhance
same,cyclin D1 expression,"48 h, UA 50 μM",reduced
same,CD8+ T cell division / proliferation,72 h,restricted; also recorded: restricts T cell proliferation
same,central memory cells (TCM),"CD8+ T cells, αCD3/αCD28",reduction
same,frequency of effector memory cells (TEM),"CD8+ T cells, αCD3/αCD28",remained unaltered
same,naïve CD44loCD62Lhi T cells,"CD8+ T cells, αCD3/αCD28",significant increase
same,number of CD44-CD62L+Sca1hi TSCM,"CD8+ T cells, αCD3/αCD28, up to 72 hours",significantly increased
same,UA-dependent expansion of CD44-CD62L+Sca1Hi TSCM cells in Pgam5−/− T cells,Pgam5−/− CD8+ T cells,blocked
same,TSCM phenotype in Pink1−/− CD8+ T cells,"Pink1−/− CD8+ T cells, presence of UA",failed to exhibit a TSCM phenotype
same,UA-induced lysosome formation and decrease in mitochondrial content in Pink1−/− T cells,Pink1−/− T cells,prevented
same,expression of genes that code for immune checkpoints and effector molecules,"RNA sequencing, 48 hours",reduced
same,β-catenin phosphorylation,after 6 hours,marked decrease
same,mitochondrial content in CD8+ T cells,after 24 hours,loss of mitochondrial content in a dose-dependent manner
same,PGC-1α expression,"prolonged UA administration in vitro (48 h, 50 μM)",marked upregulation
same,transcription of Wnt target genes,"qPCR, 24 h after stimulation",increased transcription
same,Pgam5 localization,"sub-cellular fractionation immunoblot and immunofluorescence, 6 h",rapidly released into the cytoplasma
same,T cell death in vitro,various concentrations of UA,dose-dependent T cell death
same,mitochondrial membrane potential in CD8+ T cells,within six hours after UA administration,reduction
same,TSCM formation in CD4+ cells,αCD3/αCD28,did not promote enhanced TSCM formation
same,"differentiation into effector T cells (Granzyme B, IFNγ)","αCD3/αCD28 beads, 48 h",blocked
same,"Atg5, Atg7, p62, Lamp2 and Pink1 gene expression","αCD3/αCD28 stimulated T cells, 24 h, UA 50 μM",significant upregulation
